Assay results reported in patent US20120196828A1, “SENSITIZATION OF CANCER CELLS TO TREATMENT” (priority 2011, published 2012).
“And” between values parts separate entries of the source, which are not always exact repeats. Equal entries are not always repeated.

Legend:
[1] = target: anti-thrombin III (Homo sapiens, UniProt P01008); conditions: cited from earlier work
[2] = target: Receptor for Advanced Glycation End products (RAGE) / HMGB1 (Homo sapiens, UniProt Q15109); conditions: Rao et al. 2010; WO 2009/015183; cited from earlier work
[3] = tested on: metastatic pancreatic cancer; conditions: patients with metastatic pancreatic cancer; ODSH 4 mg/kg bolus then 0.375 mg/kg/hr infusion
Method: Subjects included in the trial are: patients diagnosed with metastatic pancreatic cancer. […] See also, Burris, H. A., et al., 1997, J. Clin. Oncol. 15(6):2403-13. […] J. Clin. Oncol. 30(1):15-20. Subjects in each arm of the trial are evaluated for time to tumor progression, weight loss, pain control, six-month survival rates, and overall survival.
Subjects included in the trial are: patients diagnosed with metastatic pancreatic cancer.
Next, 50 subjects are then randomly assigned to one of two arms: either a control or a treatment group.

[4] = tested on: BxPC-3 Human Pancreas Tumor Xenograft; assay: BxPC-3 human pancreas tumor xenograft model: tumor weight and tumor growth inhibition; type: in vivo, mouse
Method: Compounds tested in the experiment were as follows. […] A concentration of 4.8 mg/ml was formulated to deliver a 24 mg/kg dose at a 5 ml/kg dose volume when administered subcutaneously. […] Nab-paclitaxel was manufactured by Abraxis BioScience LLC (Bridgewater, N.J.) and diluted in a 0.9% NaCl solution to a concentration of 1.5 mg/ml to deliver 15 mg/kg, in a 10 ml/kg dose volume. All standard agent preparations were made fresh prior to their administration.
BxPC-3 cells were obtained and prepared as follows. The BxPC-3 pancreas tumor cell line was received from American Type Culture Collection (ATCC, Manassas, Va.). Cultures were maintained in RPMI 1640 medium (Hyclone, Logan, Utah) supplemented with 5% fetal bovine serum. The cells were housed in a 5% CO2 atmosphere. The cultures were expanded in tissue culture flasks at a 1:3 split ratio until a sufficient amount of cells were harvested.
(§1) All experiments were conducted on female athymic nude mice (Hsd:Athymic Nude-Foxn1nu) supplied by Harlan (Indianapolis, Ind.). Mice were received at four weeks of age, 12-15 grams in weight, and were acclimated for seven days prior to handling. The mice were housed in microisolator cages (Lab Products, Seaford, Del.) and maintained under specific pathogen-free conditions. All procedures were carried out under appropriate institutional guidelines for animal care.
BxPC-3 Human Pancreas Tumor Xenograft Model: Female athymic nude mice per treatment condition were inoculated subcutaneously in the right flank with 0.1 ml of a 50% RPMI 1640/50% Matrigel™ (BD Biosciences, Bedford, Mass.) mixture containing a suspension of BxPC-3 tumor cells (approximately 5×10^6 cells/mouse).
(§2) Seven days following inoculation, tumors were measured using calipers and tumor weight was calculated using the animal study management software, Study Director V.1.7.54 k (Study Log). See Britten C D, et al. Enhanced antitumor activity of 6-hydroxymethylacylfulvene in combination with irinotecan and 5-fluorouracil in the HT29 human colon tumor xenograft model. Cancer Res 59:1049-1053, 1999. […] Body weights were recorded when the mice were randomized and were taken twice weekly thereafter in conjunction with tumor measurements, on each of Days 1, 4, 8, 11, 15, 18, 22, 26, 30, 33, and 36.
(§3) The study was terminated when the vehicle control reached an endpoint of 1500 mg, on Day 36.
Mean tumor growth inhibition (TGI) was calculated utilizing Formula A below (deaths were not included in the TGI calculations).
All statistical analyses in the xenograft study were performed with GraphPad Prism® v4 software.

[5] = Body weight, deaths and clinical observations in the BxPC-3 xenograft study
Method: as §1, §2, §3

[6] = tested on: metastatic gastric cancer; conditions: patients with metastatic gastric cancer; ODSH with mDCF
Method: Subjects included in the trial are: patients diagnosed with metastatic gastric, including cancer at the gastroesophageal junction. […] Subjects in each arm of the trial are evaluated for time to tumor progression, weight loss, pain control, six-month survival rates, and overall survival.

[7] = ANOVA with Tukey's Multiple Comparison Test

Sequence of anti-thrombin III (P01008 33-464, species assumed): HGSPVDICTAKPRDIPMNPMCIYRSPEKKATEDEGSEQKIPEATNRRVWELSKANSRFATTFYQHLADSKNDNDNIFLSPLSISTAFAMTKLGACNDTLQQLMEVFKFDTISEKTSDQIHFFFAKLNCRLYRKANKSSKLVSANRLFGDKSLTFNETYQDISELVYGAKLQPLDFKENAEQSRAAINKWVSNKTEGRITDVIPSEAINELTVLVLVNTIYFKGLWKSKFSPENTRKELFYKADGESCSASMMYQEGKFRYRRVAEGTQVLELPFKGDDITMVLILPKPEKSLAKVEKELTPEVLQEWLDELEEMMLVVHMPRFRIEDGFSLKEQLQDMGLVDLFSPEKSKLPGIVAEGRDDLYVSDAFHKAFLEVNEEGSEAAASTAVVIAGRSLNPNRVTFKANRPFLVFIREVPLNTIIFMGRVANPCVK
Sequence of Receptor for Advanced Glycation End products (RAGE) / HMGB1 (Q15109 23-344 limits assumed, species assumed): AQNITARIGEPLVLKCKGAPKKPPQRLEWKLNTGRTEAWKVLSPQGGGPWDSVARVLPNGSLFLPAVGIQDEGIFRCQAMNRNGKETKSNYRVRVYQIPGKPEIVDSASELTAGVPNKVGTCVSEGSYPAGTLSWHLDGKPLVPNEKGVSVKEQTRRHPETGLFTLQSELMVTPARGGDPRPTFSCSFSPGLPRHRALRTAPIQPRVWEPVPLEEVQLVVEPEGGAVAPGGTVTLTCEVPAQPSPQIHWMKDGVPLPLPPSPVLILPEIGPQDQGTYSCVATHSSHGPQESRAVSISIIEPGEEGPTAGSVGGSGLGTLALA

2-O, 3-O desulfated heparin [ODSH]
Kd [1]: ~339 µM | Kd for anti-thrombin III [1]: ~4000 µg/mL | Binding of RAGE by HMGB1 and other RAGE ligands [2]: inhibit binding | Therapeutic benefit of addition of ODSH to chemotherapy in pancreatic cancer [3]: therapeutic benefit | Difference in tumor weight on Day 26 compared to vehicle control [4, 7]: No significant difference | Difference in tumor weight on Day 36 compared to vehicle control [4, 7]: No significant difference | Mean tumor weight, Day 1 ([4]; Day 1 (randomization), group mean, dosing per Table 1): 122.4 mg | Median tumor weight, Day 1 ([4]; Day 1 (randomization), group median, dosing per Table 1): 22.9 mg | Tumor weight, individual mouse, Day 1 ([4]; Day 1 (randomization), individual mouse, dosing per Table 1 (ODSH 24, oxaliplatin 10, gemcitabine 80, nab-paclitaxel 15 mg/kg)): 140 mg and 116 mg and 172 mg and 94 mg and 131 mg and 106 mg and 125 mg and 143 mg and 129 mg | Mean tumor weight, Day 4 ([4]; Day 4, group mean, dosing per Table 1): 134.0 mg | Median tumor weight, Day 4 ([4]; Day 4, group median, dosing per Table 1): 28.6 mg | Tumor weight, individual mouse, Day 4 ([4]; Day 4, individual mouse, dosing per Table 1): 162 mg and 98 mg and 110 mg and 141 mg and 97 mg and 181 mg and 135 mg and 130 mg and 144 mg and 133 mg | Mean tumor weight, Day 8 ([4]; Day 8, group mean, dosing per Table 1): 146.0 mg | Median tumor weight, Day 8 ([4]; Day 8, group median, dosing per Table 1): 40.4 mg | Tumor weight, individual mouse, Day 8 ([4]; Day 8, individual mouse, dosing per Table 1): 218 mg and 118 mg and 144 mg and 183 mg and 125 mg and 222 mg and 126 mg and 155 mg and 157 mg and 148 mg | Mean tumor weight, Day 11 ([4]; Day 11, group mean, dosing per Table 1): 187.6 mg | Median tumor weight, Day 11 ([4]; Day 11, group median, dosing per Table 1): 162.1 mg | Tumor weight, individual mouse, Day 11 ([4]; Day 11, individual mouse, dosing per Table 1): 149 mg and 288 mg and 142 mg and 175 mg and 243 mg and 146 mg and 252 mg and 137 mg and 140 mg and 203 mg | Mean tumor weight, Day 15 ([4]; Day 15, group mean, dosing per Table 1): 263.0 mg | Median tumor weight, Day 15 ([4]; Day 15, group median, dosing per Table 1): 250.0 mg | Tumor weight, individual mouse, Day 15 ([4]; Day 15, individual mouse, dosing per Table 1): 206 mg and 340 mg and 224 mg and 263 mg and 348 mg and 237 mg and 321 mg and 208 mg and 218 mg and 264 mg | Mean tumor weight, Day 18 ([4]; Day 18, group mean, dosing per Table 1): 338.5 mg | Median tumor weight, Day 18 ([4]; Day 18, group median, dosing per Table 1): 304.7 mg | Tumor weight, individual mouse, Day 18 ([4]; Day 18, individual mouse, dosing per Table 1): 278 mg (2×) and 489 mg and 291 mg and 288 mg and 419 mg and 256 mg and 415 mg and 318 mg and 352 mg | Mean tumor weight, Day 22 ([4]; Day 22, group mean, dosing per Table 1): 453.8 mg | Median tumor weight, Day 22 ([4]; Day 22, group median, dosing per Table 1): 425.4 mg | Tumor weight, individual mouse, Day 22 ([4]; Day 22, individual mouse, dosing per Table 1): 358 mg and 622 mg and 360 mg and 400 mg and 556 mg and 402 mg and 551 mg and 449 mg and 326 mg and 515 mg | Mean tumor weight, Day 26 ([4]; Day 26, group mean, dosing per Table 1): 616.2 mg | Median tumor weight, Day 26 ([4]; Day 26, group median, dosing per Table 1): 551.3 mg | Tumor weight, individual mouse, Day 26 ([4]; Day 26, individual mouse, dosing per Table 1): 509 mg and 894 mg and 478 mg and 529 mg and 770 mg and 573 mg and 724 mg and 524 mg and 394 mg and 766 mg | Day 26 Tumor Weight ([4]; Day 26, mean ± Std Err, treatment administered until Day 26): 616.2 ± 50.9 mg | Day 26 % TGI ([4]; Day 26 vs Day 1, relative to vehicle control (Group 1), deaths not included): 11.5% and 11.5 (10/10) % | Mean tumor weight, Day 30 ([4]; Day 30, group mean of surviving mice, dosing per Table 1): 882.3 mg | Median tumor weight, Day 30 ([4]; Day 30, group median, dosing per Table 1): 856.4 mg | Tumor weight, individual mouse, Day 30 ([4]; Day 30, individual mouse, dosing per Table 1): 697 mg and 1,083 mg and 756 mg and 893 mg and 1,201 mg and 820 mg and 945 mg and 764 mg and 555 mg and 1,109 mg | Mean tumor weight, Day 33 ([4]; Day 33, group mean of surviving mice, dosing per Table 1): 1,038.6 mg | Median tumor weight, Day 33 ([4]; Day 33, group median, dosing per Table 1): 979.8 mg | Tumor weight, individual mouse, Day 33 ([4]; Day 33, individual mouse, dosing per Table 1): 908 mg and 1,218 mg and 999 mg and 961 mg (2×) and 1,309 mg and 1,087 mg and 871 mg and 733 mg and 1,340 mg | Day 36 Tumor Weight ([4]; Day 36, treatment administered until Day 35): 1270.1 ± 95.5 mg | Median tumor weight, Day 36 ([4]; Day 36, group median, dosing per Table 1): 1,151.5 mg | Tumor weight, individual mouse, Day 36 ([4]; Day 36, individual mouse, dosing per Table 1): 1,072 mg and 1,450 mg and 1,153 mg and 1,150 mg (2×) and 1,654 mg and 1,376 mg and 1,037 mg and 836 mg and 1,823 mg | Day 36 % TGI ([4]; Day 36 vs Day 1, relative to vehicle control (Group 1), deaths not included): 18.2% | Overall antitumor effect (summary statement) ([4]; xenograft model of human pancreatic cancer): inhibits tumor growth to a similar extent as treatment with gemcitabine | Day 1 Average Weight ([5]; Day 1): 21.54 g | Day 4 Average Weight ([5]; Day 4): 21.18 g | Day 4 % Weight Loss or Gain ([5]; Day 4, vs starting weight): −1.67% | Day 8 Average Weight ([5]; Day 8): 21.18 g | Day 8 % Weight Loss or Gain ([5]; Day 8, vs starting weight): −1.67% | Day 11 Average Weight ([5]; Day 11): 20.95 g | Day 11 % Weight Loss or Gain ([5]; Day 11, vs starting weight): −2.74% | Day 15 Average Weight ([5]; Day 15): 21.08 g | Day 15 % Weight Loss or Gain ([5]; Day 15, vs starting weight): −2.14% | Day 18 Average Weight ([5]; Day 18): 21.04 g | Day 18 % Weight Loss or Gain ([5]; Day 18, vs starting weight): −2.32% | Day 22 Average Weight ([5]; Day 22): 22.53 g | Day 22 Average Weight ([5]; Day 22 (Table 12)): 21.56 g | Day 22 % Weight Loss or Gain ([5]; Day 22 (Table 12), vs starting weight): 0.09% | Day 22 % Weight Loss or Gain ([5]; Day 22, vs starting weight): 4.60% | Day 26 Average Weight ([5]; Day 26 (Table 12)): 22.14 g | Day 26 % Weight Loss or Gain ([5]; Day 26 (Table 12), vs starting weight): 2.79% | Day 30 % Weight Loss or Gain ([5]; Day 30, vs starting weight, groups 3 and 5 switched regimen from Day 26): 4.92% | Day 30 Average Weight ([5]; Day 30, groups 3 and 5 switched to gemcitabine + nab-paclitaxel regimen from Day 26): 22.60 g | Day 26 Average Weight ([5]; Table 13 Day 26): 22.46 g | Day 26 % Weight Loss or Gain ([5]; Table 13 Day 26, vs starting weight): 4.27% | Tolerability / toxicity of the regimen ([5]; athymic nude mice, dosing per Table 1): well-tolerated | Starting Weight ([5]; baseline body weight, female athymic nude mice, BxPC-3 xenograft study): 21.54 g | Maximum weight loss ([5]; body weight of mice): 2.7% | Day bruising of the abdomens was first observed ([5]; mouse, in vivo): 15 days | Day bruising of the tails was first observed ([5]; mouse, in vivo): 8 days | Day by which the mice recovered their weight ([5]; mouse, in vivo): ≤ 22 days | Day on which maximum weight loss was reached ([5]; mouse, in vivo): 11 days | Day swelling of the tail was first observed ([5]; mouse, in vivo): 11 days | Mice demonstrating bruising on the tails or abdomen (site of injection) ([5]; of ten mice): All ten | Mice demonstrating swelling of the tail ([5]; of ten mice): One of the ten | Deaths ([5]; total deaths on or before Day 26, N = 10 per group): 0 | Deaths ([5]; total deaths on or before Day 36, n = 10 per group): 0 | Therapeutic benefit of addition of ODSH to chemotherapy in gastric cancer [6]: therapeutic benefit
